Assay [1] concerns the target purified human, His-tagged PRC2 complex (Homo sapiens, UniProt O75530+Q15910). As to the kind of experiment: Hot Spot HMT assay: inhibition of PRC2 enzymatic activity (transfer of tritiated methyl from SAM to core histone, filter binding). It is filed as biochemical. The note with it: Inhibition of PRC2-mediated enzymatic activity; 10 nM PRC2 complex, 0.05 mg/ml core histone H3, 1 uM 3H-SAM, 1 hr at 30°C. The gist of the method: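 Serial compound dilutions starting at 1.0 µM were pre-incubated 20 min at 30°C with 10 nM complex (His-EZH2, Flag-EED, His-SUZ12, His-AEBP2, His-RbAp48) and 0.05 mg/ml core H3. Reaction ran 1 hr at 30°C after adding 1 uM [3H]-SAM; scintillation counting followed filtration.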

The test system of assay [2] is PRC2-mediated histone H3 methylation. As to the kind of experiment: Tri-Methyl Histone H3 (Lys 27) Sandwich ELISA in Pfeiffer cells: inhibition of PRC2-mediated histone H3 methylation. It is filed as cell-based, human. The note with it: Homo sapiens; Inhibition of EZH2-mediated histone H3 trimethylation; Pfeiffer cells (EZH2 A677G), 96 hours incubation. In short, it runs like this:
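Pfeiffer DLBCL cells (EZH2 A677G mutant) treated with 3-fold serial dilutions, 1µM to 0.15 nM final, for 96 hours at 37°C. Acid (0.4M HCl) histone extracts, neutralized, assayed by H3K27me3 sandwich ELISA with HRP/TMB read at 450 nm.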
Background: In an ELISA, binding on a coated surface is turned into a signal by an enzyme label.

Another assay has as its system Karpas 422 cells. Briefly: Karpas 422 cell viability, CTG (Cell Titre Glo) assay. It is filed as cell-based, human. Particulars: Homo sapiens; Inhibition of proliferation of Karpas 422 cells (EZH2 Y641N); viability measured Day 4, Day 7 or Day 11, time point of the tabulated values not stated. The gist of the method: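 CellTiter-Glo viability IC50s taken at Day 4, Day 7 and Day 11 of continuous compound exposure (3-fold series, 10µM top, 1.5nM lowest) in RPMI/20% FBS at 37 °C. Y641N-mutant EZH2 lymphoma line seeded at 1000 cells per well; medium and compound replaced on Day 7 for Day 11 read.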

Sequence of purified human, His-tagged PRC2 complex (Q15910 whole entry): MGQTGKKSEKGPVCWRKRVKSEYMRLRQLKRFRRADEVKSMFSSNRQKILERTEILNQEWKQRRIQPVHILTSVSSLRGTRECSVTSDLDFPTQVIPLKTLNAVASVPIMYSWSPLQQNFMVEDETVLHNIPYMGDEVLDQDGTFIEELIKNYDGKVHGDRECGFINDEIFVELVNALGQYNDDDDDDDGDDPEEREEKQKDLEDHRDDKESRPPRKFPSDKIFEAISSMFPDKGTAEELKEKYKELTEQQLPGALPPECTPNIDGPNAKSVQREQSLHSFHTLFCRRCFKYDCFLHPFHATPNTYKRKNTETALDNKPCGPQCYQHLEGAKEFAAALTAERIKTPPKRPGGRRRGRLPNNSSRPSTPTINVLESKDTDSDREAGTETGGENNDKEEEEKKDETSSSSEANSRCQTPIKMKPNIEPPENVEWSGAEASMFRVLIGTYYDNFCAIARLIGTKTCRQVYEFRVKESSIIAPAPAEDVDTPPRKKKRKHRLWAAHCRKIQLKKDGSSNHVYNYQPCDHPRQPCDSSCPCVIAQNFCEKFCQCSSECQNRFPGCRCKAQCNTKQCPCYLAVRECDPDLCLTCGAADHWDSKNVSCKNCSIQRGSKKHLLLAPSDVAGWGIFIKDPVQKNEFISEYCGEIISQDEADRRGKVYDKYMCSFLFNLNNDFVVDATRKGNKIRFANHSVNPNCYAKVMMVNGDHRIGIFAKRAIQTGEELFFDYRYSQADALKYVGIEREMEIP
Sequence of purified human, His-tagged PRC2 complex (O75530 whole entry): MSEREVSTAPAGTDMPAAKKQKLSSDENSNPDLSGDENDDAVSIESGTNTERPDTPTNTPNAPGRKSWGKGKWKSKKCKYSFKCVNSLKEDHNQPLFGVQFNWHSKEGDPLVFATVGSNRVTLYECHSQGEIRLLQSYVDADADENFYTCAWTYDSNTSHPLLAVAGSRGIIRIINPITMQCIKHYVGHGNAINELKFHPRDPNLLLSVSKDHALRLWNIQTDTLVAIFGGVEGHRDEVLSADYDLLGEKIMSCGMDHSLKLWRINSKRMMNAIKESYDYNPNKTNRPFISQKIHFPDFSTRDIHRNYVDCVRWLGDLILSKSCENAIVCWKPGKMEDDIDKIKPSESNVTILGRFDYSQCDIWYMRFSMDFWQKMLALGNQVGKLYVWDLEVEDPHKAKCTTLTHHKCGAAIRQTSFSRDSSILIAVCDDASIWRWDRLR
Sequence of purified human, His-tagged PRC2 complex (Q15022 whole entry partner): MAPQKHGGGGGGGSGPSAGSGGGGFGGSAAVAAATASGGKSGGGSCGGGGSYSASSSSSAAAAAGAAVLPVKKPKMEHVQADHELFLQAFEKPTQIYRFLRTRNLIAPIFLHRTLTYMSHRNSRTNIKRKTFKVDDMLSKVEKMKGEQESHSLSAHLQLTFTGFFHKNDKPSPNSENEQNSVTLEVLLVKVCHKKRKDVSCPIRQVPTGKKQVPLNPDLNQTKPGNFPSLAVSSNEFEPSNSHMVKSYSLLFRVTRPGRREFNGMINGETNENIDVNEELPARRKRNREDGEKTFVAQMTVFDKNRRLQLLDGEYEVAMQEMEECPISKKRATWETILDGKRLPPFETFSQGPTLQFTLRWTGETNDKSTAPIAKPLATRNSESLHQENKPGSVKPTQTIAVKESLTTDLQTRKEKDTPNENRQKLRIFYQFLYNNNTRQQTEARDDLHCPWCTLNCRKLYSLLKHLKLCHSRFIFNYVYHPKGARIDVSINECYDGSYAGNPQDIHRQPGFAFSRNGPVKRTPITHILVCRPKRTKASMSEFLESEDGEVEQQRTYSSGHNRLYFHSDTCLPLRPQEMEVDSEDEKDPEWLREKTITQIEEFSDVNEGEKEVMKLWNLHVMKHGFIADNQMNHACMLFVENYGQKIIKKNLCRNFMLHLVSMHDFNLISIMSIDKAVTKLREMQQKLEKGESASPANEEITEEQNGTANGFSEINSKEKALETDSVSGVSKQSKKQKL
Sequence of purified human, His-tagged PRC2 complex (Q6ZN18 whole entry partner): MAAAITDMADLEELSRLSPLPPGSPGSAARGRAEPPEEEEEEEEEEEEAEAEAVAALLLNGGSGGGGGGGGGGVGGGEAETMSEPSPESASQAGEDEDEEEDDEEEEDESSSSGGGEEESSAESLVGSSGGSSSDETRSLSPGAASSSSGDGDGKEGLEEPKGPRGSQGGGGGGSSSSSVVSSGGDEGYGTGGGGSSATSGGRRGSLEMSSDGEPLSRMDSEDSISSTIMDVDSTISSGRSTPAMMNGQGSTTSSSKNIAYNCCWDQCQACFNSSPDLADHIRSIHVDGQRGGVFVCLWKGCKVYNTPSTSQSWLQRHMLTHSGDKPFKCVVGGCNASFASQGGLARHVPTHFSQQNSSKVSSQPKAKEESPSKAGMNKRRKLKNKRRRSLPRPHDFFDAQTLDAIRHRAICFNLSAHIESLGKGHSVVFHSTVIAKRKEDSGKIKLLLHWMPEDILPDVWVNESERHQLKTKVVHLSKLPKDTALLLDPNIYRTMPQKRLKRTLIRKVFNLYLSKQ
Sequence of purified human, His-tagged PRC2 complex (Q09028 whole entry partner): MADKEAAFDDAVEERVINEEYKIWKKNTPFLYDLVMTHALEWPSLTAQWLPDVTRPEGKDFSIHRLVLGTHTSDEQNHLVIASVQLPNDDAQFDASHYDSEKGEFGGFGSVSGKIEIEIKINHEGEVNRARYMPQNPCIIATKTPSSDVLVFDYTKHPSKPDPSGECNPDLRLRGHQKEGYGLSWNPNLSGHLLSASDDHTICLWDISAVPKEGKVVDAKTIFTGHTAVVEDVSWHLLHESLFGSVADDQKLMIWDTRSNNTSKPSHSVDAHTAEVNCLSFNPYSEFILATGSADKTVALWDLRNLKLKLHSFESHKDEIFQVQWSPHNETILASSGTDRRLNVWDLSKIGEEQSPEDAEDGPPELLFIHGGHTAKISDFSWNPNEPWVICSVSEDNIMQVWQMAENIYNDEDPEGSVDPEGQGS

Broadly, the IC50 is the concentration needed to halve the response being measured. High values mean weaker potency, low ones greater potency. For the molecule `N#Cc1cn2c(NCc3c(F)ccc4c3CCO4)ncc(-c3cnn(CCO)c3)c2n1` [Example 182, 5-(((5-fluoro-2,3-dihydrobenzofuran-4-yl)methyl)amino)-8-(1-(2-hydroxyethyl)-1H-pyrazol-4-yl)imidazo[1,2-c]pyrimidine-2-carbonitrile], the IC50 in assay [1] was 100 to 500 nM; in assay [2], 100 to 500 nM; with Karpas 422 cells it was no more than 250 nM.

Regarding `CC(O)Cn1cc(-c2cnc(NCc3c(F)ccc4c3CCO4)n3cc(C#N)nc23)cn1` (stereo not drawn) [Example 179, 5-(((5-fluoro-2,3-dihydrobenzofuran-4-yl)methyl)amino)-8-(1-(2-hydroxypropyl)-1H-pyrazol-4-yl)imidazo[1,2-c]pyrimidine-2-carbonitrile], the IC50 in assay [1] is less than 100 nM; in assay [2], 100 to 500 nM; with Karpas 422 cells, greater than 500 nM.

With `Cc1nc(CN(C)C)ccc1-c1cnc(NCc2c(F)ccc3c2CCO3)n2cc(C#N)nc12` [Example 152, 8-(6-((dimethylamino)methyl)-2-methylpyridin-3-yl)-5-(((5-fluoro-2,3-dihydrobenzofuran-4-yl)methyl)amino)imidazo[1,2-c]pyrimidine-2-carbonitrile], the figures for the IC50 (in assay [1]; in assay [2]; in the assay on Karpas 422 cells) were 100 to 500 nM, 100 to 500 nM and no more than 250 nM, respectively.

As for `Cc1ccc(-c2cnc(NCc3c(F)ccc4c3CCO4)n3cc(C#N)nc23)c(C)c1` [Example 192, 8-(2,4-dimethylphenyl)-5-(((5-fluoro-2,3-dihydrobenzofuran-4-yl)methyl)amino)imidazo[1,2-c]pyrimidine-2-carbonitrile], the IC50 (in assay [1]; in assay [2]; in the assay on Karpas 422 cells) was greater than 500 nM throughout.

As to `CN(C)C(=O)c1ccc(-c2cnc(NCc3c(F)ccc4c3CCO4)n3cc(C#N)nc23)cc1` [Example 180, 4-(2-cyano-5-(((5-fluoro-2,3-dihydrobenzofuran-4-yl)methyl)amino)imidazo[1,2-c]pyrimidin-8-yl)-N,N-dimethylbenzamide], the 50% inhibitory concentration (IC50) in assay [1] is less than 100 nM; in assay [2], no more than 100 nM; in the assay on Karpas 422 cells it was no more than 250 nM.

As to `N#Cc1cn2c(NCc3c(F)ccc4c3CCO4)ncc(-c3cnn(CC4CCOC4)c3)c2n1` (stereo not drawn) [compound 154], the half-maximal inhibitory concentration (IC50) in assay [1] fell in the range of 100 to 500 nM; in assay [2], 100 to 500 nM; in the assay with Karpas 422 cells, 250 to 500 nM.

As to `COCCOc1ccc(-c2cnc(NCc3c(F)ccc4c3CCO4)n3cc(C#N)nc23)c(C)c1` [Example 206, 5-(((5-fluoro-2,3-dihydrobenzofuran-4-yl)methyl)amino)-8-(4-(2-methoxyethoxy)-2-methylphenyl)imidazo[1,2-c]pyrimidine-2-carbonitrile], the IC50 in assay [1] lay within 100 to 500 nM; in assay [2], 100 to 500 nM; with Karpas 422 cells, 250 to 500 nM.

Regarding `N#Cc1cn2c(NCc3c(F)ccc4c3CCO4)ncc(-c3ccc(C(=O)O)cc3)c2n1` [Example 183, 4-(2-cyano-5-(((5-fluoro-2,3-dihydrobenzofuran-4-yl)methyl)amino)imidazo[1,2-c]pyrimidin-8-yl)benzoic acid], the IC50 in assay [1] was less than 100 nM; in assay [2] it was greater than 500 nM; with Karpas 422 cells it was greater than 500 nM.

For the molecule `N#Cc1cn2c(NCc3c(F)ccc4c3CCO4)ncc(-c3ccccn3)c2n1` [Example 146, 5-(((5-fluoro-2,3-dihydrobenzofuran-4-yl)methyl)amino)-8-(pyridin-2-yl)imidazo[1,2-c]pyrlmldlne-2-carbonltrlle], the figures for the concentration for half-maximal inhibition (IC50) (in assay [1]; in assay [2]; with Karpas 422 cells) were 100 to 500 nM, 100 to 500 nM and no more than 250 nM, respectively.

The values above are taken from EP4043466B1, “PRC2 INHIBITORS” (Mirati Therapeutics, Inc., priority 2018, dated 2019).
